Measured values from ChEMBL document CHEMBL1201862, “PubChem BioAssay data set” (2004).
Active and inactive are the calls of the source.

What was measured:
cells [1] = assay type: functional, cell-based
cells [2] = assay type: functional, cell-based; remark: listed apart in the source
[3] = NIH3T3 cell viability loss – ATP luminescence, mouse fibroblasts, counter-screen, dose response (AID 2010); assay type: functional, cell-based;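 note: cells exposed to compound for about 90 hours before reading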
[4] = loss of viability in HepG2 cells – cell-based, CellTiter-Glo, cherry-picked, cytotoxicity control for Shn3 inhibitor project, dose response (AID 624134); assay type: functional
[5] = reduction of Shn3 3'UTR-driven luciferase in osteoblasts – cell-based, Clone20 osteoblasts, firefly luciferase, cherry-picked, dose response (AID 624132); assay type: functional;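 note: firefly luciferase luminescence from reporter carrying the Shn3 3'UTR in osteoblasts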
[6] = Trypanosoma cruzi growth suppression in host cells – NIH3T3 host cells, beta-gal luminescence, confirmation (AID 2044); assay type: functional, cell-based;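 note: intracellular parasites grown in NIH/3T3 mouse fibroblasts as host cells; luminescent beta-galactosidase reporter signal from transgenic T. cruzi replicating inside host cells; inhibitors lower the luminescence signal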
[7] = target: Luciferin 4-monooxygenase (Photinus pyralis, UniProt P08659); assay: inhibition of purified Photinus pyralis luciferase – biochemical, luminescence, dose response (AID 1891)
[8] = Luminescence Cell-Based Dose Confirmation HTS to Identify Inhibitors of Platelet Dense Granule Release. [Related pubchem assays: 1663 (Primary HTS), 1678 (Summary of Project)]; assay type: functional
Cytochrome P450 2C19 = Cytochrome P450 2C19 (Homo sapiens, UniProt P33261); assay: Cytochrome panel assay with activity outcomes. Panel member name: p450-cyp2c19 Compounds with AC50 equal or less than 10 uM are considered active; assay type: functional; conditions: read-out: AC50
[9] = non-specific 3'UTR reporter inhibition in Clone20-Shn3RL – cell-based, Renilla luciferase, cherry-picked, counter-screen for Shn3 inhibitor project, dose response (AID 624133); assay type: functional
[10] = luciferase reporter signal suppression in cells – H4 neuroglioma cells, luminescence, dose response (AID 1990); assay type: functional, cell-based
[11] = Luminescence Cell-Based Dose Response HTS to Identify Inhibitors of 5'UTR Stem-Loop Driven Prion Protein mRNA Translation in H4 Neuroglioblastoma Cells. [Related pubchem assays: 1827 (Project Summary), 1813 (Primary HTS)]; assay type: functional
[12] = alpha-synuclein stem-loop luciferase translation blockers – H4 neuroglioma cells, luminescence, confirmation (AID 1988); assay type: functional, cell-based
[13] = target: T1, Heat shock factor protein 1 (Mus musculus, UniProt P38532); assay: decrease of HSF1-responsive luciferase luminescence – cell-based, NIH3T3, dose retest, confirmation (AID 2382); assay type: functional;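 note: NIH3T3 fibroblasts with HSF1-driven luciferase reporter stressed by proteasome inhibitor MG132; luminescence from HSF1-driven luciferase expression after 8 hours of MG132 stress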
T1 sequence (P38532 whole entry): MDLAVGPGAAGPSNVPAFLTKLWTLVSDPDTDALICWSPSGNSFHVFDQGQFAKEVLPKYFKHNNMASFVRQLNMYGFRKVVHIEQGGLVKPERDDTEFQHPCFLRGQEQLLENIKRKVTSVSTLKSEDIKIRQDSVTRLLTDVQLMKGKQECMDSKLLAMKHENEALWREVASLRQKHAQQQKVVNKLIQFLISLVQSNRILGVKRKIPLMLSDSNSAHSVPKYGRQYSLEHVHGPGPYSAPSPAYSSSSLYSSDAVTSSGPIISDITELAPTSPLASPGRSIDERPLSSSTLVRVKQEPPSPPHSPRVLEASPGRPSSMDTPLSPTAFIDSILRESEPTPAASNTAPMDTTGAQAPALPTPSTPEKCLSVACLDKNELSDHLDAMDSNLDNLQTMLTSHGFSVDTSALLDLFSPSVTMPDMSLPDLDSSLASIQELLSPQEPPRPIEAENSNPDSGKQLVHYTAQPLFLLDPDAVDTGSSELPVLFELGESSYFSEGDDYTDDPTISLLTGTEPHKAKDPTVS

Luciferin 4-monooxygenase, sequence (P08659 whole entry): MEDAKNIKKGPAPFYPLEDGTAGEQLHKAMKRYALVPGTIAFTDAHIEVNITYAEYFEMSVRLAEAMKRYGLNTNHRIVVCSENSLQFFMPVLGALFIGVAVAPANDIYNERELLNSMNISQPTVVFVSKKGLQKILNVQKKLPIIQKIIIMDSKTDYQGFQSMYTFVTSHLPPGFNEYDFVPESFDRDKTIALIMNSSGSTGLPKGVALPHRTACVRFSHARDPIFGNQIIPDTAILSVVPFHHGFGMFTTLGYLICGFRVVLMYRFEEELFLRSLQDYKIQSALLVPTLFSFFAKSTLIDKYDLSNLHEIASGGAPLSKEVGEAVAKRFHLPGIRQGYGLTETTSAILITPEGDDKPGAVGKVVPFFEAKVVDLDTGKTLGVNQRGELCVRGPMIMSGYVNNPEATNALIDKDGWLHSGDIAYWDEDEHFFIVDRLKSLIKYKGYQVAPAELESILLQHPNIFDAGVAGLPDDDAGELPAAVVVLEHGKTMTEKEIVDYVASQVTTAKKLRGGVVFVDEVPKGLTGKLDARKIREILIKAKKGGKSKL
Cytochrome P450 2C19, sequence (P33261 whole entry): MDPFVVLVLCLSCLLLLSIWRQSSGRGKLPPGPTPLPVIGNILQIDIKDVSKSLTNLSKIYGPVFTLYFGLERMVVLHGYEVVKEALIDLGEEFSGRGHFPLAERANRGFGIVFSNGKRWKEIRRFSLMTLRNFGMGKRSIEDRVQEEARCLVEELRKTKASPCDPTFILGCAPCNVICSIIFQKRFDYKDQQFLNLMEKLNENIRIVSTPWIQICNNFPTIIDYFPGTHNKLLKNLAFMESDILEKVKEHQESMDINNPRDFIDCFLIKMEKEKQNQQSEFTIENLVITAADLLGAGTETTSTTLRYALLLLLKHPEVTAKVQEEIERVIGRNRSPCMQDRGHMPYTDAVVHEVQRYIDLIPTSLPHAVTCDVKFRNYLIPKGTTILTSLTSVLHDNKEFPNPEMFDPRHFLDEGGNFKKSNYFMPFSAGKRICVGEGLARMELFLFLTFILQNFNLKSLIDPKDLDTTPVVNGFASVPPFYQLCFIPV

For `COCCn1c(-c2ccc(OC)cc2)cnc1SCC(=O)Nc1ccc(OC)cc1OC`, the EC50 (cells [1]) was > 350 µM (not active) and the EC50 (cells [2]) was > 350 µM (not active).

For `CCn1c(SCC(=O)c2cc(C)ccc2C)nc2cc(S(=O)(=O)N3CCOCC3)ccc21`, the EC50 (cells [1]) was > 350 µM (not active) and the EC50 (cells [2]) was > 350 µM (not active).

For `CC(C)(C)n1nnnc1C(c1cccs1)N1CCCC2(CCCCC2)C1` (stereo not given), the EC50 [3] was > 60 µM (not active), the AC50 [4] was > 70 µM (inactive) and the AC50 [5] was 21.7 µM (active). For the same compound, the EC50 [6] was 2.15 µM (active).

In the case of `O=C(CSc1nnc(-c2ccco2)n1Cc1ccco1)NCc1ccccc1`, the EC50 (cells [1]) is reported as > 350 µM (not active) and the EC50 (cells [2]) is reported as > 350 µM (not active).

For `CC(=O)N1CCC(=NNc2nc3ccccc3[nH]2)CC1`, the EC50 (cells [1]) was > 350 µM (not active) and the EC50 (cells [2]) was 32.3 µM (active).

In the case of `CC(C)OCCCNCC(O)c1ccccc1` (stereo not given), the EC50 [7] is reported as > 112 µM (not active) and the EC50 [8] is reported as > 112 µM (not active).

In the case of `CCn1nnnc1SCC(=O)NC1CCCC1`, the EC50 [7] is reported as > 112 µM (not active), the EC50 [8] is reported as > 112 µM (not active) and the AC50 (Cytochrome P450 2C19) is reported as 35.5 µM (inconclusive).

In the case of `COc1ccc(S(=O)(=O)N2CCN(C(=O)c3cc(-c4ccc(Br)cc4)[nH]n3)CC2)cc1OC`, the AC50 [9] is reported as 4.76 µM (active), the AC50 [4] is reported as 55.6 µM (active) and the AC50 [5] is reported as 4.55 µM (active).

For `CCCCCOc1ccc(Br)cc1CSC(=N)N`, the AC50 [9] was 10.5 µM (active), the AC50 [4] was 11.3 µM (active) and the AC50 [5] was 1.47 µM (active).

With `COC(=O)c1ccc(C(C(=O)NCc2ccccc2)N(Cc2ccco2)C(=O)c2cnccn2)cc1` (stereo not given) the EC50 (cells [1]) was > 350 µM (not active) and the EC50 (cells [2]) was > 350 µM (not active).

In the case of `CCCn1c2ccccc2c2cnn(CC(=O)NC3CCCC(C)C3C)c(=O)c21` (stereo not given), the EC50 (cells [1]) is reported as > 350 µM (not active) and the EC50 (cells [2]) is reported as > 350 µM (not active).

For `CC(C)c1ccc(-c2c(C#N)c(N)nc3c2CCCCC3)cc1`, the EC50 (cells [1]) was > 350 µM (not active), the EC50 [10] was > 120 µM (not active) and the EC50 [11] was > 120 µM (not active). For the same compound, the EC50 [12] was 41.9 µM (active) and the EC50 (cells [2]) was > 350 µM (not active).

For `COc1ccccc1N(C)S(=O)(=O)c1ccc(C(=O)Nc2cc(F)ccc2C)cc1`, the AC50 [9] was 26.5 µM (active), the AC50 [4] was > 70 µM (inactive) and the AC50 [5] was 13.8 µM (active).

With `COc1ccc(CC(N)c2csc(NC(=O)c3cc(C(C)(C)C)nn3Cc3ccccc3)n2)cc1` (stereo not given) the AC50 [9] was 22.9 µM (active), the AC50 [4] was 9.69 µM (active) and the AC50 [5] was 9.53 µM (active).

With `COc1ccc(/C=N/NC(=S)Nc2cc(S(=O)(=O)N3CCOCC3)ccc2N2CCOCC2)cc1O` the EC50 (cells [1]) was > 350 µM (not active) and the EC50 (cells [2]) was > 350 µM (not active).

In the case of `O=C(N/N=C/c1cc2cc3c(cc2nc1Cl)OCO3)c1ccncc1`, the EC50 [7] is reported as > 112 µM (not active), the EC50 (cells [1]) is reported as > 350 µM (not active) and the EC50 [8] is reported as > 112 µM (not active). The EC50 (cells [2]) was > 350 µM (not active).

With `Cc1ccc(/C(O)=C/C=N/c2ccccn2)cc1` the EC50 [7] was 1.64 µM (active), the EC50 [10] was 3.18 µM (active) and the EC50 [13] was 4.24 µM (active). For the same compound, the EC50 [8] was 5.11 µM (active), the EC50 [11] was 1.4 µM (active) and the EC50 [12] was 0.188 µM (active).
